“Also recorded” adds a separate entry of the source.

For this test, the system named is HCV (JFH-1) infected Huh7 cells. The note with it: 24 hours; for effect on HCV replication (in words): HCV RNA by qPCR (FIG. 9; discussion). An excerpt: Huh7 cells were infected with the JFH-1 strain of hepatitis C virus (genotype 2a) as previously described in Wakita et al., (2005), “Production of infectious hepatitis C virus in tissue culture from a cloned viral genome”, Nat. Med., 11(7):791-796). Briefly, pJFH-1 plasmids encoding full length HCV genome (provided by T. Wakita, National Institute of Infectious Diseases, Japan) were linearized and HCV RNA was synthesized using T7 RiboMAX™ Express Large Scale RNA Production System (Promega). 10 μg of HCV RNA was added to 1.6×10^6 Huh7 cells suspended in 800 ul PBS buffer. A Bio-Rad Gene Pulser system was used to deliver a single pulse at 0.34 kV, 975 μF, using 4 mm electroporation cuvettes. Cells were cultured at 37° C. in a 5% CO2 atmosphere in Dulbecco's modified Eagle's medium (DMEM) supplemented with 10% fetal bovine serum for 10 days (Gibco).
HCV RNA was amplified from infected Huh7 cells using specific primers targeting the 5′ noncoding region under the following conditions: 10 min at 95° C.; 40 cycles of 94° C. for 15 s and 60° C. for 45 s. Samples were analysed in triplicate and relative expression of HCV RNA normalised to 18s.
JFH-1 infected Huh7 cells cultured in 6 well plates were treated with HU-210 (100 nM), either alone or with increasing concentrations of the antagonists NlDA-41020 or (S)-SLV-319 (1 nM, 10 nM, 100 nM and 1 μM). Untreated cells and cells treated with CB1 antagonist alone (100 nM) were used as controls. After 24 hours cells were harvested, total RNA extracted, and HCV RNA measured by qPCR. Three replicate experiments were performed for each set of conditions and mean values calculated.
In general terms: In qPCR the cycle at which signal appears reflects the starting amount.

For the compound `CN=C(NS(=O)(=O)c1ccc(Cl)cc1)N1C[C@H](c2ccccc2)C(c2ccc(Cl)cc2)=N1` [(S)-SLV-319, 3-(4-chlorophenyl)-N-[(4-chlorophenyl)sulfonyl]-4,5-dihydro-N′-methyl-4-phenyl-1H-pyrazole-1-carboximidamide], the “effect on HCV replication (in words)” value is “inhibit HCV replication in a dose-dependent manner; also recorded: inhibited”.
As for `CCCCCCC(C)(C)c1cc(O)c2c(c1)OC(C)(C)[C@@H]1CC=C(CO)C[C@@H]21` [HU-210], the “effect on HCV replication (in words)” value is given as “stimulated”. Also, the “increase of HCV replication” value (HU-210 100 nM, HCV RNA by qPCR normalised to 18s (FIG. 7)) was 40%.

The values are drawn from US20130059890A1, “ANTIVIRAL AGENTS” (SYDNEY WEST AREA HEALTH SERVICE, priority 2009, published 2013).
